According to patent US20200288710A1, “SUBSTITUTED SULPHONAMIDES FOR CONTROLLING ANIMAL PESTS” (BAYER CROPSCIENCE AKTIENGESELLSCHAFT, priority 2016, published 2020):

How the values were obtained:
Assay type in all cases: in vivo
[1] = tested on: Meloidogyne incognita; test: Meloidogyne incognita test; details: 336 h, lettuce, after 14 days, read-out: nematicidal efficacy (formation of galls)
Method in brief: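 Gall formation on lettuce roots scored after 14 days: 0% means gall count equals untreated control, 100% means none. Sand vessels held the compound (acetone concentrate diluted in water), southern root-knot nematode egg/larvae suspension and lettuce seeds.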

[2] = tested on: Myzus persicae; test: Myzus persicae spray test (Chinese cabbage leaf discs); details: foliar, 120 h, 500 g/ha, after 5-6 days, read-out: efficacy
Method in brief: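 Formulated compound in acetone/dimethylformamide, diluted in water with 1000 ppm emulsifier, was sprayed onto Brassica pekinensis leaf discs carrying mixed-stage Myzus persicae. Percent mortality was read 5-6 days later (0% = no aphids killed, 100% = all killed).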

[3] = tested on: Phaedon cochleariae; test: Phaedon cochleariae spray test; details: foliar, 168 h, Chinese cabbage leaf discs, larvae, after 7 days, read-out: efficacy
Procedure: Phaedon cochleariae—Spray Test
To produce a suitable preparation of active compound, 1 part by weight of active compound is dissolved using the specified parts by weight of solvent and made up with water containing an emulsifier concentration of 1000 ppm until the desired concentration is attained. To produce further test concentrations, the formulation is diluted with emulsifier-containing water.
After 7 days, the efficacy in % is determined. 100% means that all the beetle larvae have been killed; 0% means that no beetle larvae have been killed.

[4] = tested on: Myzus persicae; test: Myzus persicae oral test; details: 120 h, oral uptake, after 5 days, read-out: efficacy
Method in brief: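 Aphids of mixed ages imbibe, through parafilm, compound solution (acetone stock, water-diluted) combined with sugar-supplemented IPL41 medium to 200 μl. Efficacy read at day 5 as percent killed, 0% meaning no deaths.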

Row | Compound | pest or weed control at 20 ppm [1] | pest or weed control at 500 g/ha [2] | pest or weed control at 500 g/ha [3] | pest or weed control at 4 ppm [4] | pest or weed control at 20 ppm [4]
1 | Cc1cccc(C(F)(F)F)c1S(=O)(=O)NC(=O)c1cn(C)c(-c2ncccc2Cl)n1 [Example 586] | 90% | 100% | 100% | 100% | –
2 | Cc1cc(Br)ccc1S(=O)(=O)NC(=O)c1cn(C)c(-c2c(F)cccc2F)n1 [Example 446] | 90% | 90% | 100% | – | 100%
3 | Cc1ccccc1S(=O)(=O)NC(=O)c1nc(-c2c(F)cccc2F)n(C)c1Cl [Example 552] | 90% | 90% | 83% | – | –
4 | Cc1ccccc1S(=O)(=O)NC(=O)c1cn(C)c(-c2ncccc2Br)n1 [Example 579] | 90% | 100% | 100% | – | 100%
5 | Cn1cc(C(=O)NS(=O)(=O)c2cccc(Cl)c2I)nc1-c1c(F)cccc1F [Example 313] | 90% | 90% | 100% | – | 100%
6 | Cn1c(-c2ccccc2Cl)nc(C(=O)NS(=O)(=O)c2ccccc2Cl)c1Cl [Example 221] | 100% | – | 100% | – | 100%
7 | Cn1cc(C(=O)NS(=O)(=O)c2ccccc2C(F)(F)F)nc1-c1ccccc1Cl [Example 58] | 90% | 90% | 100% | – | 100%
8 | CCc1ccc(Cl)cc1S(=O)(=O)NC(=O)c1cn(C)c(-c2ncccc2Cl)n1 [Example 583] | 90% | 100% | 100% | – | 100%
9 | COc1ccc(Br)c(S(=O)(=O)NC(=O)c2cn(C)c(-c3ccccc3Cl)n2)c1 [Example 420] | 90% | 100% | 83% | – | 100%
10 | Cc1cccc(C(F)(F)F)c1S(=O)(=O)NC(=O)c1cn(C)c(-c2c(F)cccc2F)n1 [Example 369] | 90% | 100% | 100% | – | 100%
11 | COc1ccc(C)c(S(=O)(=O)NC(=O)c2cn(C)c(-c3ccccc3Cl)n2)c1 [Example 424] | 90% | 90% | 100% | – | 100%
12 | Cn1cc(C(=O)NS(=O)(=O)c2cccc3ccccc23)nc1-c1c(F)cccc1F [Example 510] | 90% | 100% | 100% | – | 100%
13 | Cn1cc(C(=O)NS(=O)(=O)c2ccc(Br)cc2C(F)(F)F)nc1-c1c(F)cccc1F [Example 449] | 100% | 100% | 100% | – | 100%
14 | Cc1cc(C)c(S(=O)(=O)NC(=O)c2cn(C)c(-c3c(F)cccc3F)n2)c(C)c1 [Example 436] | 90% | 90% | 100% | – | 100%
15 | Cc1ccccc1S(=O)(=O)NC(=O)c1cn(C)c(-c2cccc3ccccc23)n1 [Example 216] | 90% | – | 100% | – | 100%
16 | CCc1ccccc1S(=O)(=O)NC(=O)c1cn(C)c(-c2ncccc2Cl)n1 [Example 581] | 100% | 100% | 100% | 100% | –
17 | Cc1ccc(F)cc1S(=O)(=O)NC(=O)c1cn(C)c(-c2cccc(Cl)c2Cl)n1 [Example 319] | 90% | 100% | 100% | – | 100%

Row | Compound | pest or weed control at 20 ppm [1] | pest or weed control at 500 g/ha [2] | pest or weed control at 500 g/ha [3] | pest or weed control at 4 ppm [4] | pest or weed control at 20 ppm [4]
18 | CCc1cccc(F)c1S(=O)(=O)NC(=O)c1cn(C)c(-c2c(F)cccc2F)n1 [Example 338] | 100% | 90% | 100% | – | 100%
19 | COc1ccc(Cl)c(S(=O)(=O)NC(=O)c2cn(C)c(-c3ncccc3Cl)n2)c1 [Example 575] | 90% | 90% | 83% | – | 100%
20 | Cc1cccc(Cl)c1S(=O)(=O)NC(=O)c1cn(C)c(-c2cccc(Cl)c2Cl)n1 [Example 556] | 90% | 90% | 100% | – | 100%
21 | Cc1ccc(F)cc1S(=O)(=O)NC(=O)c1cn(C)c(-c2ccccc2Cl)n1 [Example 425] | 90% | 100% | 100% | – | 100%
22 | Cn1cc(C(=O)NS(=O)(=O)c2c(Cl)cccc2Cl)nc1-c1ccccc1Cl [Example 227] | 100% | 100% | 83% | – | –
23 | Cc1cccc(C(C)C)c1S(=O)(=O)NC(=O)c1cn(C)c(-c2c(F)cccc2F)n1 [Example 361] | 90% | – | 100% | – | –
24 | Cn1cc(C(=O)NS(=O)(=O)c2ccccc2Cl)nc1-c1c(F)cc(F)cc1F [Example 2] | 90% | 90% | 100% | – | –
25 | COc1ccc(Cl)c(S(=O)(=O)NC(=O)c2nc(-c3c(F)cccc3F)n(C)c2C)c1 [Example 334] | 90% | – | 100% | – | –
26 | Cn1cc(C(=O)NS(=O)(=O)c2cccc(Cl)c2)nc1-c1c(Cl)cccc1Cl [Example 42] | 100% | 100% | 100% | – | –
27 | Cc1cccc(OC(F)(F)F)c1S(=O)(=O)NC(=O)c1cn(C)c(-c2c(F)cccc2F)n1 [Example 405] | 90% | – | 100% | – | 100%
28 | Cc1ccc(S(=O)(=O)NC(=O)c2cn(C)c(-c3ccccc3Cl)n2)cc1 [Example 164] | 90% | 100% | 100% | – | –
29 | COc1ccc(Cl)c(S(=O)(=O)NC(=O)c2nc(-c3ccccc3Cl)n(C)c2Br)c1 [Example 222] | 100% | – | 100% | – | –
30 | Cc1ccccc1S(=O)(=O)NC(=O)c1nc(-c2ccccc2Cl)n(C)c1Cl [Example 205] | 100% | – | 100% | – | 100%
31 | Cn1c(-c2c(F)cccc2F)nc(C(=O)NS(=O)(=O)c2ccccc2Cl)c1Cl [Example 550] | 90% | 90% | 100% | – | –
32 | COc1cc(S(=O)(=O)NC(=O)c2cn(C)c(-c3ccccc3Cl)n2)c(C)cc1Br [Example 286] | 100% | – | 100% | – | 100%
33 | Cc1ccccc1S(=O)(=O)NC(=O)c1nc(-c2c(F)cccc2F)c(C)n1C [Example 311] | 100% | – | 83% | – | 100%
